Each compound was assayed against T1, Human CB1 receptor (Homo sapiens, UniProt P21554) (assay: hCB1 GTPγS binding). Conditions: maximal stimulated binding determined with 10 μM Win 55,212-2.
T1 construct: purchased Receptor Biology
Type: biochemical
Procedure: hCB1 and hCB2 GTPγS Binding
Human CB1 receptor from Receptor Biology (hCB1) or human CB2 receptor membranes (BioSignal) are thawed at 37° C., passed 3 times through a 25-gauge blunt-end needle and diluted in the GTPγS binding buffer (50 mM Hepes, 20 mM NaOH, 100 mM NaCl, 1 mM EDTA, 5 mM MgCl2, pH 7.4, 0.1% BSA). The EC50 and Emax of the compounds of the invention are evaluated from 10-point dose-response curves done in 300 μl with the appropriate amount of membrane protein and 100000-130000 dpm of GTPg^35S per well (0.11-0.14 nM). The basal and maximal stimulated binding is determined in absence and presence of 1 μM (hCB2) or 10 μM (hCB1) Win 55, 212-2 respectively. The membranes are pre-incubated for 5 minutes with 56.25 μM (hCB2) or 112.5 μM (hCB1) GDP prior to distribution in plates (15 μM (hCB2) or 30 μM (hCB1) GDP final). The plates are vortexed and incubated for 60 minutes at room temperature, filtered on Unifilters GF/B (presoaked in water) with the Tomtec or Packard harvester using 3 ml of wash buffer (50 mM Tris, 5 mM MgCl2, 50 mM NaCl, pH 7.0). The filters are dried for 1 hour at 55° C. The radioactivity (cpm) is counted in a TopCount (Packard) after adding 65 μl/well of MS-20 scintillation liquid. Antagonist reversal studies are done in the same way except that (a) an agonist dose-response curve is done in the presence of a constant concentration of antagonist, or (b) an antagonist dose-response curve is done in the presence of a constant concentration of agonist.

T1 sequence (P21554 whole entry): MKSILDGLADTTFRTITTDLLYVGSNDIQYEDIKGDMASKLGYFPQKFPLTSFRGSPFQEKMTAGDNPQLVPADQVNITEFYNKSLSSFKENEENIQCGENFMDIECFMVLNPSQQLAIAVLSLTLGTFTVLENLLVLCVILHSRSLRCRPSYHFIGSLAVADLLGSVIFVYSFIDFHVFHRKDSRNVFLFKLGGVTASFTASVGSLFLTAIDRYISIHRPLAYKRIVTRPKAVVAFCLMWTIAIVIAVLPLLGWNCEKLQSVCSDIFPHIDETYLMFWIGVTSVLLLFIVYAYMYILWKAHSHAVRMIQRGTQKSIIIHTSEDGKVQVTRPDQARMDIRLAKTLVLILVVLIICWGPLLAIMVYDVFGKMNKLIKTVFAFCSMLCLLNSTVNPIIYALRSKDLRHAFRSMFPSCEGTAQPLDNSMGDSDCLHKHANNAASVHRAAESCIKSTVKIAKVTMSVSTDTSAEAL

Row | SMILES | Emax [%]
1 | CC(C)NC(=O)c1cnn(S(=O)(=O)c2ccc3c(c2)nc(C(C)(C)C)n3CC2CCC(F)(F)CC2)c1 [1-({2-tert-Butyl-1-[(4,4-difluorocyclohexyl)methyl]-1H-benzimidazol-5-yl}sulfonyl)-N-isopropyl-1H-pyrazole-4-carboxamide] | 125
2 | CC(C)(C)c1nc2cc(S(=O)(=O)N3CCC[C@H](C(=O)NC4CC4)C3)ccc2n1CC1CCC(F)(F)CC1 [(3S)-1-({2-tert-Butyl-1-[(4,4-difluorocyclohexyl)methyl]-1H-benzimidazol-5-yl}sulfonyl)-N-cyclopropylpiperidine-3-carboxamide] | 136
3 | CC(C)(C)c1nc2cc(S(=O)(=O)n3ccc(C(=O)NC4CC4)c3)ccc2n1CC1CCOCC1 [1-{[2-tert-Butyl-1-(tetrahydro-2H-pyran-4-ylmethyl)-1H-benzimidazol-5-yl]sulfonyl}-N-cyclopropyl-1H-pyrrole-3-carboxamide] | 142
4 | CC(C)(C)c1nc2cc(S(=O)(=O)N3CCOC(C(=O)NC4CC4)C3)ccc2n1CC1CCC(F)(F)CC1 (centres unmarked) [4-({2-tert-Butyl-1-[(4,4-difluorocyclohexyl)methyl]-1H-benzimidazol-5-yl}sulfonyl)-N-cyclopropylmorpholine-2-carboxamide] | 120
5 | CCNC(=O)c1ccn(S(=O)(=O)c2ccc3c(c2)nc(C(C)(C)C)n3CC2CCOCC2)c1 [1-{[2-tert-butyl-1-(tetrahydro-2H-pyran-4-ylmethyl)-1H-benzimidazol-5-yl]sulfonyl}-N-ethyl-1H-pyrrole-3-carboxamide] | 138
6 | CC(F)(F)c1nc2cc(S(=O)(=O)n3ccc(C(=O)NC4CC4)c3)ccc2n1CC1CCOCC1 [N-Cyclopropyl-1-{[2-(1,1-difluoroethyl)-1-(tetrahydro-2H-pyran-4-ylmethyl)-1H-benzimidazol-5-yl]sulfonyl}-1H-pyrrole-3-carboxamide] | 119
7 | CCCNC(=O)[C@H]1CCCN(S(=O)(=O)c2ccc3c(c2)nc(C(C)(C)C)n3CC2CCC(F)(F)CC2)C1 [(3S)-1-({2-tert-Butyl-1-[(4,4-difluorocyclohexyl)methyl]-1H-benzimidazol-5-yl}sulfonyl)-N-propylpiperidine-3-carboxamide] | 134
8 | CC(C)(C)c1nc2cc(S(=O)(=O)n3cc(C(=O)NC4CC4)cn3)ccc2n1CC1CCC(F)(F)CC1 [1-({2-tert-Butyl-1-[(4,4-difluorocyclohexyl)methyl]-1H-benzimidazol-5-yl}sulfonyl)-N-cyclopropyl-1H-pyrazole-4-carboxamide] | 122
9 | CCNC(=O)c1cnn(S(=O)(=O)c2ccc3c(c2)nc(C(C)(C)C)n3CC2CCOCC2)c1 [Example 27, 1-{[2-tert-Butyl-1-(tetrahydro-2H-pyran-4-ylmethyl)-1H-benzimidazol-5-yl]sulfonyl}-N-ethyl-1H-pyrazole-4-carboxamide] | 127
10 | CCNC(=O)[C@@H]1CN(S(=O)(=O)c2ccc3c(c2)nc(C(C)(C)C)n3CC2CCC(F)(F)CC2)CCO1 [(2S)-4-((2-tert-butyl-1-[(4,4-difluorocyclohexyl)methyl]-1H-benzimidazol-5-yl}sulfonyl)-N-ethylmorpholine-2-carboxamide] | 156
11 | CNC(=O)c1cnn(S(=O)(=O)c2ccc3c(c2)nc(C(C)(C)C)n3CC2CCC(F)(F)CC2)c1 [1-({2-tert-Butyl-1-[(4,4-difluorocyclohexyl)methyl]-1H-benzimidazol-5-yl}sulfonyl)-N-methyl-1H-pyrazole-4-carboxamide] | 118

From patent publication US20110086853A1, “Therapeutic Compounds” (priority 2009, published 2011)
